Data as given in patent US12390441B2, “Immunomodulating o-het/aryl azalides” (Zoetis Services LLC, priority 2020, dated 2025).
Read-outs that look alike come from different tables or passages of the source. Marks after values point to notes of the source that are not given here.

What was measured:
M. haemolytica = assay: In-vitro MIC model (CLSI broth micro-dilution); type: cell-based, Mannheimia haemolytica; details: for MIC: Mannheimia haemolytica, read-out: Comparative MIC
P. multocida = assay: In-vitro MIC model (CLSI broth micro-dilution); type: cell-based, Pasteurella multocida; details: for MIC: Pasteurella multocida, read-out: Comparative MIC
S. aureus (29213 ATCC) = assay: In-vitro MIC model (CLSI broth micro-dilution); type: cell-based
P. multocida 46572 = assay: In vivo mouse lung infection challenge model (murine); parameters: species or system CD-1 female mice; details: 46572, sc, 20 mg/kg, 240 h
Description: The challenge organism was P. multocida 46572. Target challenge concentration was 5×10^2 CFU/mouse. Isolated colonies from overnight growth (37° C. with 5% CO2) on trypticase soy agar (TSA II) blood plates were transferred to room temperature Brain Heart Infusion Broth (BHIB). The broth culture was incubated 3.5-4 hours to approximately mid-log phase of growth, as measured by forward light scatter at 600 nm (OD600, 0.200). The culture was centrifuged to collect the bacterial pellet. The pellet was re-suspended in BHIB and adjusted to provide an approximate concentration of 2.7 log^10 colony forming units (CFU) in 0.04 mL at the highest concentration. The challenge inoculum concentration was confirmed by serial dilutions of the inoculum for CFU enumeration. On Day −5, CD-1 female mice were received. Mice were given standard rodent diet and water ad libitum. On Day 0, bacterial inoculum (0.04 mL) was administered to each mouse (n=36) intranasally. Compounds of the invention were dosed at 20 mg/kg (0.1 mL) in a buffered (˜pH 5.4) propylene glycol, monothioglycerol and water solution by subcutaneous injection. Animals were observed from Days 1-10. The study was terminated on Day 10. In addition, some treatment groups were sampled at 6, 24, and 48 hours post bacterial challenge for RNA sequence analysis of lung tissue.
The murine efficacy model (P. multocida challenge) was optimized, and the treatment group size was powered to be able to observe statistically significant improvement of survival to expected ranges for immunomodulatory compounds. The experimental design was a randomized complete block design. Mice were individually identified and treatment groups comingled within a cage, with every treatment group equally represented across cages. Mortality was the primary variable. Mortality data was analyzed using a generalized mixed model with fixed effect of treatment and random effect of block. Survival time was also analyzed using the SAS PHREG (survival analysis) procedure to examine whether there were significant differences between treatment groups and the control group. Numerous compounds of the invention and M9 (positive control) were tested in this model at a dose of 20 mg/kg (Table 3). Typical percent survival for no treatment control is in the range of 0-20% based on study to study variation in challenge inoculum and rate of infection. […] Mouse survival for M9 was about 90-100%, further supporting its residual antibacterial properties against the bacterial strain. Harmonized survival accounts for % survival relative to vehicle (“−” control) and M9 (“+” control)) survival data (Table 3).

[1] = system: BRD pathogens, M. haemolytica and P. multocida; assay: In-vitro MIC model, BRD pathogen screening panel; type: cell-based, Mannheimia haemolytica; Pasteurella multocida; details: at least one BRD strain
TNF-α = assay: Whole blood assay, LPS stimulation, MSD cytokine detection; type: cell-based; details: fresh whole bovine blood
IL-1β = assay: as above; type: cell-based, bovine; details: fresh whole bovine blood, LPS stimulation; drug concentration giving overstimulation (OS) of IL-1β
IL-6 = assay: as above; type: cell-based; details: Bos taurus, fresh whole bovine blood
[2] = system: Lung bacteria isolated at necropsy; assay: MIC of recovered isolates, natural bovine respiratory disease study
Description: The primary clinical endpoint for efficacy was treatment failure/success over a 14-day observation period. Clinically normal beef calves (150-200 kg) at moderate risk for BRD were dosed on arrival to the feedlot. Animals (N=114/group) received saline (T01), 5 mg/kg M9 (T02) or 10 mg/kg M9 (T03); or Zactran (T04). […] Bacterial isolates were collected at necropsy and MICs were evaluated (Table 4).

[3] = M. haemolytica 46571, bovine efficacy challenge strain
[4] = P. multocida 46572, murine efficacy challenge strain
[5] = H. somni (25) lung isolates at necropsy
[6] = M. haemolytica (116) lung isolates at necropsy
[7] = P. multocida (33) lung isolates at necropsy

With `CC[C@H]1OC(=O)[C@H](C)[C@@H](O)[C@H](C)[C@@H](O[C@@H]2O[C@H](C)C[C@H](NC)[C@H]2Oc2ccc(OC)cc2)[C@](C)(O)C[C@@H](C)CN[C@H](C)[C@@H](O)[C@]1(C)O` [Example B-6, (2R,3S,4R,5R,8R,10R,11R,12S,13S,14R)-2-ethyl-3,4,10,13-tetrahydroxy-11-(((2S,3R,4S,6R)-3-(4-methoxyphenoxy)-6-methyl-4-(methylamino)tetrahydro-2H-pyran-2-yl)oxy)-3,5,8,10,12,14-hexamethyl-1-oxa-6-azacyclopentadecan-15-one] the MIC (M. haemolytica; M. haemolytica 12726) was greater than 64 µg/mL, the MIC (M. haemolytica; M. haemolytica 33396) was greater than 64 µg/mL and the MIC (M. haemolytica; [3]) was greater than 64 µg/mL. It also gave an MIC (P. multocida; P. multocida 43137) greater than 64 µg/mL, an MIC (P. multocida; [4]) greater than 64 µg/mL and an MIC (S. aureus (29213 ATCC); Staphylococcus aureus, read-out: Comparative MIC) greater than 64 µg/mL. The “% Survival” value (P. multocida 46572) was 1%.
With `CC[C@H]1OC(=O)[C@H](C)[C@@H](O)[C@H](C)[C@@H](O[C@@H]2O[C@H](C)C[C@H](N(C)C(=O)N(C)C3CC3)[C@H]2Oc2ccccc2)[C@](C)(O)C[C@@H](C)CN(C)[C@H](C)[C@@H](O)[C@]1(C)O` [Example C-27] the “Comparative MIC” value (M. haemolytica; M. haemolytica 12726) was greater than 64 µg/mL, the “Comparative MIC” value (M. haemolytica; M. haemolytica 33396) was greater than 64 µg/mL and the “Comparative MIC” value (M. haemolytica; [3]) was greater than 64 µg/mL. The “Comparative MIC” value (P. multocida; P. multocida 43137) was greater than 64 µg/mL, the “Comparative MIC” value (P. multocida; [4]) was greater than 64 µg/mL and the “Comparative MIC” value (S. aureus (29213 ATCC)) was greater than 64 µg/mL.
For `CCCNC[C@]1(O)[C@H](C)O[C@@H](O[C@H]2[C@H](C)[C@@H](O[C@@H]3O[C@H](C)C[C@H](NC)[C@H]3Oc3ccc(F)cc3)[C@](C)(O)C[C@@H](C)CN[C@H](C)[C@@H](O)[C@](C)(O)[C@@H](CC)OC(=O)[C@@H]2C)C[C@@]1(C)OC` [Example E-1, (2R,3S,4R,5R,8R,10R,11R,12S,13S,14R)-2-ethyl-11-(((2S,3R,4S,6R)-3-(4-fluorophenoxy)-6-methyl-4-(methylamino)tetrahydro-2H-pyran-2-yl)oxy)-3,4,10-trihydroxy-13-(((2R,4R,5S,6S)-5-hydroxy-4-methoxy-4,6-dimethyl-5-((propylamino)methyl)tetrahydro-2H-pyran-2-yl)oxy)-3,5,8,10,12,14-hexamethyl-1-oxa-6-azacyclopentadecan-15-one], the “MIC flag at the example number (Table E)” value [1] was “E-1* (MIC ≤ 64 μg/mL for at least one BRD strain)”, the IC50 (TNF-α; Bos taurus) was 6 µM and the “IL-1ß OS of LPS” value (IL-1β) was 32 µM. The “% Survival” value (P. multocida 46572) was 57%.
`CCCNC[C@]1(O)[C@H](C)O[C@@H](O[C@H]2[C@H](C)[C@@H](O[C@@H]3O[C@H](C)C[C@H](NC)[C@H]3Oc3ccc(OC)cc3)[C@](C)(O)C[C@@H](C)CN[C@H](C)[C@@H](O)[C@](C)(O)[C@@H](CC)OC(=O)[C@@H]2C)C[C@@]1(C)OC` [Example E-2, (2R,3S,4R,5R,8R,10R,11R,12S,13S,14R)-2-ethyl-3,4,10-trihydroxy-13-(((2R,4R,5S,6S)-5-hydroxy-4-methoxy-4,6-dimethyl-5-((propylamino)methyl)tetrahydro-2H-pyran-2-yl)oxy)-11-(((2S,3R,4S,6R)-3-(4-methoxyphenoxy)-6-methyl-4-(methylamino)tetrahydro-2H-pyran-2-yl)oxy)-3,5,8,10,12,14-hexamethyl-1-oxa-6-azacyclopentadecan-15-one] was tested, and the “MIC flag at the example number (Table E)” value [1] was “E-2* (MIC ≤ 64 μg/mL for at least one BRD strain)”, the IC50 (TNF-α; Bos taurus) was 6 µM and the “IL-1ß OS of LPS” value (IL-1β) was 32 µM. For the same molecule, the “% Survival” value (P. multocida 46572) was 36%.
For `CCCNC[C@]1(O)[C@H](C)O[C@@H](O[C@H]2[C@H](C)[C@@H](O[C@@H]3O[C@H](C)C[C@H](NC)[C@H]3Oc3cccc(OCC)c3)[C@](C)(O)C[C@@H](C)CN[C@H](C)[C@@H](O)[C@](C)(O)[C@@H](CC)OC(=O)[C@@H]2C)C[C@@]1(C)OC` [Example E-13], the “Comparative MIC” value (M. haemolytica; M. haemolytica 12726) was greater than 64 µg/mL, the “Comparative MIC” value (M. haemolytica; M. haemolytica 33396) was greater than 64 µg/mL and the “Comparative MIC” value (M. haemolytica; [3]) was greater than 64 µg/mL. The “Comparative MIC” value (P. multocida; P. multocida 43137) was greater than 64 µg/mL, the “Comparative MIC” value (P. multocida; [4]) was greater than 64 µg/mL and the “Comparative MIC” value (S. aureus (29213 ATCC)) was greater than 64 µg/mL. The IC50 (TNF-α) was 30 µM and the “IL-1ß OS of LPS” value (IL-1β) was 40 µM.
With `CCCNC[C@]1(O)[C@H](C)O[C@@H](O[C@H]2[C@H](C)[C@@H](O[C@@H]3O[C@H](C)C[C@H](NC)[C@H]3Oc3ccc(C#N)cc3)[C@](C)(O)C[C@@H](C)CN[C@H](C)[C@@H](O)[C@](C)(O)[C@@H](CC)OC(=O)[C@@H]2C)C[C@@]1(C)OC` [Example E-111, 4-(((2S,3R,4S,6R)-2-(((2R,3S,4R,5R,8R,10R,11R,12S,13S,14R)-2-ethyl-3,4,10-trihydroxy-13-(((2R,4R,5S,6S)-5-hydroxy-4-methoxy-4,6-dimethyl-5-((propylamino)methyl)tetrahydro-2H-pyran-2-yl)oxy)-3,5,8,10,12,14-hexamethyl-15-oxo-1-oxa-6-azacyclopentadecan-11-yl)oxy)-6-methyl-4-(methylamino)tetrahydro-2H-pyran-3-yl)oxy)benzonitrile] the IC50 (TNF-α; Bos taurus) was 9 µM, the “IL-1ß OS of LPS” value (IL-1β) was 80 µM and the IC50 (IL-6) was 90 µM. For the same molecule, the “% Survival” value (P. multocida 46572) was 22%.
`CCCNC[C@]1(O)[C@H](C)O[C@@H](O[C@H]2[C@H](C)[C@@H](O[C@@H]3O[C@H](C)C[C@H](N(C)C(=O)N4CCN(CC)CC4)[C@H]3Oc3ccc(OC)c(OCC)c3)[C@](C)(O)C[C@@H](C)CN[C@H](C)[C@@H](O)[C@](C)(O)[C@@H](CC)OC(=O)[C@@H]2C)C[C@@]1(C)OC` [Example G-3] was tested, and the “Comparative MIC” value (M. haemolytica; M. haemolytica 12726) was greater than 64 µg/mL, the “Comparative MIC” value (M. haemolytica; M. haemolytica 33396) was greater than 64 µg/mL and the “Comparative MIC” value (M. haemolytica; [3]) was greater than 64 µg/mL. For the same molecule, the “Comparative MIC” value (P. multocida; P. multocida 43137) was greater than 64 µg/mL, the “Comparative MIC” value (P. multocida; [4]) was greater than 64 µg/mL and the “Comparative MIC” value (S. aureus (29213 ATCC)) was greater than 64 µg/mL.
`CCCN1C[C@H](C)[C@@H](O)[C@](C)(O)[C@@H](CC)OC(=O)[C@H](C)[C@@H](O[C@H]2C[C@@](C)(OC)[C@@H](O)[C@H](C)O2)[C@H](C)[C@@H](O[C@@H]2O[C@H](C)C[C@H](N(C)C)[C@H]2O)[C@](C)(O)C[C@H]1C` [gamithromycin (Zactran)] showed an MIC50 [2, 5] of 0.25 µg/mL, an MIC90 [2, 5] of 2 µg/mL and an MIC50 [2, 6] of 1 µg/mL. For the same molecule, the MIC90 [2, 6] was greater than 64 µg/mL, the MIC50 [2, 7] was 1 µg/mL and the MIC90 [2, 7] was greater than 64 µg/mL.
